Where a SMILES comes first, the peptide text is derived from it.
Assays:
[1] = tested on: Aspergillus fumigatus; type: cell-based; conditions: 24 h
Procedure: (§1) The minimum inhibitory concentration (MIC) was determined by growing fungal strains in YG media until the fungi reached logarithmic phase. The cells were diluted in YG medium then placed in a 96-well plate along with a series of 2-fold dilutions of the peptides. The plate was then incubated at 37° C. for 24 hours. Minimum inhibitory growth was defined as the lowest concentration at which there was no fungal growth.

[2] = tested on: Candida albicans; type: cell-based; conditions: 24 h
Procedure: as §1

CC(C)C[C@H](NC(=O)[C@H](Cc1ccccc1)NC(=O)[C@@H]1CCCN1C(=O)[C@H](Cc1c[nH]c2ccccc12)NC(=O)[C@H](Cc1c[nH]c2ccccc12)NC(=O)[C@H](Cc1c[nH]c2ccccc12)NC(=O)[C@@H]1CCCN1C(=O)[C@H](Cc1ccccc1)NC(=O)[C@H](CCCNC(=N)N)NC(=O)[C@H](CCCNC(=N)N)NC(=O)[C@@H](N)C(C)C)C(=O)N[C@@H](CCCNC(=N)N)C(=O)N[C@@H](CCCNC(=N)N)C(=O)O [Peptide 1, VRRFPWWWPFLRR]
MINIMUM INHIBITORY CONCENTRATION Aspergillus fumigatus [1]: 250 µg/mL
MINIMUM INHIBITORY CONCENTRATION Candida albicans [2]: 1000 µg/mL

CC(C)C[C@H](NC(=O)[C@H](Cc1ccccc1)NC(=O)[C@@H]1CCCN1C(=O)[C@H](Cc1c[nH]c2ccccc12)NC(=O)[C@H](Cc1c[nH]c2ccccc12)NC(=O)[C@H](Cc1c[nH]c2ccccc12)NC(=O)[C@@H]1CCCN1C(=O)[C@H](Cc1ccccc1)NC(=O)[C@@H](N)CCCNC(=N)N)C(=O)N[C@@H](CCCNC(=N)N)C(=O)O [Peptide 3, RFPWWWPFLR] (H-RFPWWWPFLR-OH)
MINIMUM INHIBITORY CONCENTRATION Aspergillus fumigatus [1]: 500 µg/mL

N[C@@H](Cc1ccccc1)C(=O)N1CCC[C@H]1C(=O)N[C@@H](Cc1c[nH]c2ccccc12)C(=O)N[C@@H](Cc1c[nH]c2ccccc12)C(=O)N[C@@H](Cc1c[nH]c2ccccc12)C(=O)N1CCC[C@H]1C(=O)N[C@@H](Cc1ccccc1)C(=O)O [Peptide 4, FPWWWPF] (H-FPWWWPF-OH)
MINIMUM INHIBITORY CONCENTRATION Aspergillus fumigatus [1]: 500 µg/mL

— patent US5994308A, “Broad spectrum antimicrobial peptides containing a tryptophan triplet and methods of use” (Board of Trustees of Southern Illinois University, priority 1997, dated 1999)
